Data taken from ChEMBL document CHEMBL3797052 (Eur J Med Chem, 2016).

Tested on: NCI-H460
Test: Antiproliferative activity against human NCI-H460 cells assessed as cell growth at 10^-8 M after 48 hrs by sulforhodamine B assay
Format: functional
Settings: NCI-H460, 48 h, read-out: Activity

Row | SMILES | growth at 0.01 µM
1 | CNC(=O)c1cc(Oc2ccc3nc(NC(=O)Nc4ccc(Cl)c(C(F)(F)F)c4)sc3c2)ccn1 | 106%

Tested on: not listed separately
Test: Antiproliferative activity against human HCT116 cells assessed as cell growth at 10^-6 M after 48 hrs by sulforhodamine B assay
Format: functional
Settings: HCT-116, 48 h, read-out: Activity

Row | SMILES | growth at 1 µM
2 | CNC(=O)c1cc(Oc2ccc3nc(NC(=O)Nc4ccc(Cl)c(C(F)(F)F)c4)sc3c2)ccn1 | 80%

Tested on: not listed separately
Test: Antiproliferative activity against human RXF393 cells assessed as cell growth at 10^-7 M after 48 hrs by sulforhodamine B assay
Format: functional
Settings: RXF 393, 48 h, read-out: Activity

Row | SMILES | growth at 0.1 µM
3 | CNC(=O)c1cc(Oc2ccc3nc(NC(=O)Nc4ccc(Cl)c(C(F)(F)F)c4)sc3c2)ccn1 | 90%

Tested on: not listed separately
Test: Antiproliferative activity against human Caki1 cells assessed as cell growth at 10^-4 M after 48 hrs by sulforhodamine B assay
Format: functional
Settings: CAKI-1, 48 h, read-out: Activity

Row | SMILES | growth at 100 µM
4 | CNC(=O)c1cc(Oc2ccc3nc(NC(=O)Nc4ccc(Cl)c(C(F)(F)F)c4)sc3c2)ccn1 | 17%

Tested on: not listed separately
Test: Antiproliferative activity against human COLO205 cells assessed as cell growth at 10^-4 M after 48 hrs by sulforhodamine B assay
Format: functional
Settings: COLO 205, 48 h, read-out: Activity

Row | SMILES | growth at 100 µM
5 | CNC(=O)c1cc(Oc2ccc3nc(NC(=O)Nc4ccc(Cl)c(C(F)(F)F)c4)sc3c2)ccn1 | 53%

Tested on: U-251
Test: Antiproliferative activity against human U251 cells assessed as cell growth at 10^-6 M after 48 hrs by sulforhodamine B assay
Format: functional
Settings: U-251, 48 h, read-out: Activity

Row | SMILES | growth at 1 µM
6 | CNC(=O)c1cc(Oc2ccc3nc(NC(=O)Nc4ccc(Cl)c(C(F)(F)F)c4)sc3c2)ccn1 | 89%

Tested on: MDA-MB-468
Test: Antiproliferative activity against human MDA-MB-468 cells assessed as growth inhibition after 48 hrs by sulforhodamine B assay
Format: functional
Settings: MDA-MB-468, 48 h

Row | SMILES | GI50 | TGI
7 | CNC(=O)c1cc(Oc2ccc3nc(NC(=O)Nc4ccc(Cl)c(C(F)(F)F)c4)sc3c2)ccn1 | 1.36 µM | 4.1 µM

Same assay, conditions: MDA-MB-468, 48 h, read-out: LC50 (the source's name)

Row | SMILES | CC50
8 | CNC(=O)c1cc(Oc2ccc3nc(NC(=O)Nc4ccc(Cl)c(C(F)(F)F)c4)sc3c2)ccn1 | > 100 µM

Tested on: HT-29
Test: Antiproliferative activity against human HT-29 cells assessed as growth inhibition after 48 hrs by sulforhodamine B assay
Format: functional
Settings: HT-29, 48 h

Row | SMILES | LC50 | TGI
9 | CNC(=O)c1cc(Oc2ccc3nc(NC(=O)Nc4ccc(Cl)c(C(F)(F)F)c4)sc3c2)ccn1 | > 100 µM | > 100 µM

Tested on: not listed separately
Test: Antiproliferative activity against human PC3 cells assessed as cell growth at 10^-4 M after 48 hrs by sulforhodamine B assay
Format: functional
Settings: PC-3, 48 h, read-out: Activity

Row | SMILES | growth at 100 µM
10 | CNC(=O)c1cc(Oc2ccc3nc(NC(=O)Nc4ccc(Cl)c(C(F)(F)F)c4)sc3c2)ccn1 | 7%

Tested on: not listed separately
Test: Antiproliferative activity against human BT549 cells assessed as cell growth at 10^-6 M after 48 hrs by sulforhodamine B assay
Format: functional
Settings: BT-549, 48 h, read-out: Activity

Row | SMILES | growth at 1 µM
11 | CNC(=O)c1cc(Oc2ccc3nc(NC(=O)Nc4ccc(Cl)c(C(F)(F)F)c4)sc3c2)ccn1 | 87%

Tested on: not listed separately
Test: Antiproliferative activity against human OVCAR5 cells assessed as growth inhibition after 48 hrs by sulforhodamine B assay
Format: functional
Settings: OVCAR-5, 48 h

Row | SMILES | GI50 | TGI
12 | CNC(=O)c1cc(Oc2ccc3nc(NC(=O)Nc4ccc(Cl)c(C(F)(F)F)c4)sc3c2)ccn1 | 2.46 µM | 7.55 µM

Same assay, conditions: OVCAR-5, 48 h, read-out: LC50 (the source's name)

Row | SMILES | CC50
13 | CNC(=O)c1cc(Oc2ccc3nc(NC(=O)Nc4ccc(Cl)c(C(F)(F)F)c4)sc3c2)ccn1 | > 100 µM

Tested on: SN12C
Test: Antiproliferative activity against human SN12C cells assessed as cell growth at 10^-8 M after 48 hrs by sulforhodamine B assay
Format: functional
Settings: read-out: Activity

Row | SMILES | growth at 0.01 µM
14 | CNC(=O)c1cc(Oc2ccc3nc(NC(=O)Nc4ccc(Cl)c(C(F)(F)F)c4)sc3c2)ccn1 | 97%

Tested on: not listed separately
Test: Antiproliferative activity against human PC3 cells assessed as cell growth at 10^-6 M after 48 hrs by sulforhodamine B assay
Format: functional
Settings: PC-3, 48 h, read-out: Activity

Row | SMILES | growth at 1 µM
15 | CNC(=O)c1cc(Oc2ccc3nc(NC(=O)Nc4ccc(Cl)c(C(F)(F)F)c4)sc3c2)ccn1 | 71%

Tested on: NCI-H23
Test: Antiproliferative activity against human NCI-H23 cells assessed as cell growth at 10^-8 M after 48 hrs by sulforhodamine B assay
Format: functional
Settings: NCI-H23, 48 h, read-out: Activity

Row | SMILES | growth at 0.01 µM
16 | CNC(=O)c1cc(Oc2ccc3nc(NC(=O)Nc4ccc(Cl)c(C(F)(F)F)c4)sc3c2)ccn1 | 100%

Tested on: Malme-3M
Test: Antiproliferative activity against human MALME-3M cells assessed as cell growth at 10^-6 M after 48 hrs by sulforhodamine B assay
Format: functional
Settings: read-out: Activity

Row | SMILES | growth at 1 µM
17 | CNC(=O)c1cc(Oc2ccc3nc(NC(=O)Nc4ccc(Cl)c(C(F)(F)F)c4)sc3c2)ccn1 | 79%

Tested on: not listed separately
Test: Antiproliferative activity against human IGROV1 cells assessed as growth inhibition after 48 hrs by sulforhodamine B assay
Format: functional
Settings: IGROV-1, 48 h

Row | SMILES | GI50 | TGI
18 | CNC(=O)c1cc(Oc2ccc3nc(NC(=O)Nc4ccc(Cl)c(C(F)(F)F)c4)sc3c2)ccn1 | 2.02 µM | 5.12 µM

Same assay, conditions: IGROV-1, 48 h, read-out: LC50 (the source's name)

Row | SMILES | CC50
19 | CNC(=O)c1cc(Oc2ccc3nc(NC(=O)Nc4ccc(Cl)c(C(F)(F)F)c4)sc3c2)ccn1 | > 100 µM
